Data on five compounds can be found in patent US8618149B2, “Inhibition of biofilms in plants with imidazole derivatives” (North Carolina State University, priority 2007, dated 2013).

For experiment [1], the system named is Xanthomonas strain Xcv 135. Kind of experiment: Biofilm inhibition, crystal violet biofilm attachment assay on PVC microtiter wells. It counts as cell-based. Conditions: biofilm formation, starting OD600 0.55, 28° C., 6 hours, static. As to the method:
Activity Testing. A standard crystal violet reporter assay is employed to assess the effect of compounds on the formation of biofilms. Among others, the following strains are tested:
Bacteria are allowed to form biofilms in a multi-well plate in the absence or presence of one or more compounds. Planktonic (or free growing) bacteria are then removed, wells washed vigorously, and crystal violet added. Crystal violet stains the remaining bacteria which, following ethanol solubilization, is quantitated by spectrophotometry (A540). Time-dependent and concentration-dependent analysis of each compound are performed.
Activity testing of imidazole library members on Xanthomonas. Biofilm formation on PVC microtiter wells was accomplished using Xanthomonas strains Xcv 135 (known to infect peppers and tomatoes) and Xcv 5 (known to infect tomatoes but not peppers) as models. The Starting Optical Density (OD at 600 nm) for biofilm attachment assay was 0.55, the temperature for this assay was 28° C., the duration of incubation was 6 hours under, and the assay was static.
Biofilm inhibition results are as follows for screens with Xcv 135. The Xcv 5 strain is tested in the same manner.

Experiment [2] has as its system marine α-proteobacterium R. salexigens. Conditions: documented in literature (Yamada et al. 1997); cited from earlier work.
The test system of another experiment is calcium channels. Conditions: known from literature (Bickmeyer, Toxicon 2005); cited from earlier work.

Where a name gives a salt, the structure may show the parent alone.

Turning to `NC[C@@H]1Cc2nc(N)[nH]c2C[C@H]1CN` (racemic) [Formula (II)(a)(±)], the % Inhibition (commonly the drop in the measured response relative to a control, in per cent) at 20 μM (vs. Xcv 135) in experiment [1] is recorded as 0%.

On to `Nc1nc2c([nH]1)C[C@@H](CNC(=O)c1cc(Br)c[nH]1)[C@H](CNC(=O)c1cc(Br)c[nH]1)C2` (racemic) [Formula (II)(b)(v)(trans)(±)], for which, in experiment [1], the “% Inhibition at 20 μM (vs. Xcv 135)” value was 0%.

As to `Nc1nc2c([nH]1)C[C@@H](CNC(=O)c1cc(Br)c(Br)[nH]1)[C@H](CNC(=O)c1cc(Br)c(Br)[nH]1)C2` (racemic) [Formula (II)(b)(vi)(trans)(±)], the “% Inhibition at 20 μM (vs. Xcv 135)” value in experiment [1] was 71%.

With `Nc1nc([C@@H]2c3[nH]c(N)nc3C[C@H](CNC(=O)c3cc(Br)c[nH]3)[C@H]2CNC(=O)c2cc(Br)c(Br)[nH]2)c[nH]1` [bromoageliferin], in experiment [2], the “anti-biofouling properties: biofilm development in R. salexigens” value is given as “inhibiting biofilm development”. For the same compound, the “activity of calcium channels” value with calcium channels is recorded as “modulate the activity of calcium channels”.

For `Nc1ncc(/C=C/CNC(=O)c2cc(Br)c(Br)[nH]2)[nH]1` [oroidin, oroidin hydrochloride], in experiment [2], the “anti-biofouling properties: biofilm development in R. salexigens” value is listed as “inhibiting biofilm development”.
